In one experiment the test system is cancer cells. The experiment can be described thus: Cell viability assay, summary statements on cancer cells. The experiment is classed as cell-based. The settings on record: single mutation in TPR or Antp region of Antp-TPR.
For a further experiment, the system named is U937. In words: cells. The conditions noted are these: for killing effect compared with the wild-type peptide / Anti-cancer activity (% relative to wild-type peptide) / Decrease in cell survival rate (% relative to wild-type peptide): U937; for Anti-cancer activity (% relative to wild-type peptide) / Decrease in cell survival rate (% relative to wild-type peptide): wild-type peptide = 100%. The experiment is classed as cell-based, human. As to the method: A total of 3×10^3 cells per well were inoculated onto a 96 well plate, and incubated in a medium containing 10% FBS with 100 μl of a peptide diluted stepwise at 37° C. for 48 to 72 hours. The survival rate of the cells was measured by using WST-8 solution (Cell Count Reagent SF; Nacalai Tesque, Inc.).

Another experiment concerns Caki-1. Type of experiment: cell-based, human. The settings on record: Caki-1; for Anti-cancer activity (% relative to wild-type peptide) / Decrease in cell survival rate (% relative to wild-type peptide): wild-type peptide = 100%.

SMILES strings stand for the structures. Where a SMILES comes first, the peptide text is derived from it.

As for `CC[C@H](C)[C@H](NC(=O)[C@H](CCCNC(=N)N)NC(=O)[C@H](C)NC(=O)[C@H](Cc1ccc(O)cc1)NC(=O)[C@H](C)NC(=O)[C@H](CCCCN)NC(=O)[C@H](CCCCN)NC(=O)[C@H](CCCCN)NC(=O)[C@H](Cc1c[nH]c2ccccc12)NC(=O)[C@H](CCCCN)NC(=O)[C@H](CCSC)NC(=O)[C@H](CCCNC(=N)N)NC(=O)[C@H](CCCNC(=N)N)NC(=O)[C@H](CC(N)=O)NC(=O)[C@H](CCC(N)=O)NC(=O)[C@H](Cc1ccccc1)NC(=O)[C@H](Cc1c[nH]c2ccccc12)NC(=O)[C@@H](NC(=O)[C@H](CCCCN)NC(=O)[C@@H](NC(=O)[C@H](CCC(N)=O)NC(=O)[C@@H](N)CCCNC(=N)N)[C@@H](C)CC)[C@@H](C)CC)C(=O)NCC(=O)N[C@@H](CC(N)=O)C(=O)N[C@@H](CO)C(=O)N[C@@H](Cc1ccc(O)cc1)C(=O)N[C@@H](Cc1ccccc1)C(=O)N[C@@H](CCCNC(=N)N)C(=O)O` [Antp-K12R] (H-RQIKIWFQNRRMKWKKKAYARIGNSYFR-OH; N-terminus and C-terminus assumed), in the experiment with cancer cells, the “effect compared with the wild-type protein (summary of mutations)” value is on record as “effect similar to that of the wild-type protein”. Besides, in the experiment on U937, the “Cell Survival Rate (%)” value was found to be 21.95%, the “killing effect compared with the wild-type peptide” value is “increase in effect”, the “Anti-cancer activity (% relative to wild-type peptide)” value was found to be 101.68% and the “Decrease in cell survival rate (% relative to wild-type peptide)” value (“Decrease … (% relative to wild-type peptide)” for short) is 105.89%. In addition, in the experiment with Caki-1, the “Anti-cancer activity (% relative to wild-type peptide)” value was 90.20% and the “Decrease … (% relative to wild-type peptide)” value stood at 54.95%.

For the molecule `CC[C@H](C)[C@H](NC(=O)[C@H](CCCNC(=N)N)NC(=O)CNC(=O)[C@H](Cc1ccc(O)cc1)NC(=O)[C@H](C)NC(=O)[C@H](CCCCN)NC(=O)[C@H](CCCCN)NC(=O)[C@H](CCCCN)NC(=O)[C@H](Cc1c[nH]c2ccccc12)NC(=O)[C@H](CCCCN)NC(=O)[C@H](CCSC)NC(=O)[C@H](CCCNC(=N)N)NC(=O)[C@H](CCCNC(=N)N)NC(=O)[C@H](CC(N)=O)NC(=O)[C@H](CCC(N)=O)NC(=O)[C@H](Cc1ccccc1)NC(=O)[C@H](Cc1c[nH]c2ccccc12)NC(=O)[C@@H](NC(=O)[C@H](CCCCN)NC(=O)[C@@H](NC(=O)[C@H](CCC(N)=O)NC(=O)[C@@H](N)CCCNC(=N)N)[C@@H](C)CC)[C@@H](C)CC)C(=O)NCC(=O)N[C@@H](CC(N)=O)C(=O)N[C@@H](CO)C(=O)N[C@@H](Cc1ccc(O)cc1)C(=O)N[C@@H](Cc1ccccc1)C(=O)N[C@@H](CCCCN)C(=O)O` [Antp-A4G] (H-RQIKIWFQNRRMKWKKKAYGRIGNSYFK-OH; N-terminus and C-terminus assumed), the “effect compared with the wild-type protein (summary of mutations)” value in the experiment on cancer cells is listed as “effect higher than the wild-type protein”. Further, in the experiment on U937, the “Cell Survival Rate (%)” value amounted to 11.42%, the “Anti-cancer activity (% relative to wild-type peptide)” value turned out to be 115.40% and the “Decrease … (% relative to wild-type peptide)” value turned out to be 203.46%. Also, in the experiment with Caki-1, the “killing effect compared with the wild-type peptide” value is given as “stronger than that of the wild-type peptide”, the “Anti-cancer activity (% relative to wild-type peptide)” value stood at 108.40% and the “Decrease … (% relative to wild-type peptide)” value is recorded as 333.52%.

In the case of `CC[C@H](C)[C@H](NC(=O)[C@H](CCCNC(=N)N)NC(=O)[C@H](C)NC(=O)[C@H](Cc1ccc(O)cc1)NC(=O)[C@H](C)NC(=O)[C@H](C)NC(=O)[C@H](CCCCN)NC(=O)[C@H](CCCCN)NC(=O)[C@H](Cc1c[nH]c2ccccc12)NC(=O)[C@H](CCCCN)NC(=O)[C@H](CCSC)NC(=O)[C@H](CCCNC(=N)N)NC(=O)[C@H](CCCNC(=N)N)NC(=O)[C@H](CC(N)=O)NC(=O)[C@H](CCC(N)=O)NC(=O)[C@H](Cc1ccccc1)NC(=O)[C@H](Cc1c[nH]c2ccccc12)NC(=O)[C@@H](NC(=O)[C@H](CCCCN)NC(=O)[C@@H](NC(=O)[C@H](CCC(N)=O)NC(=O)[C@@H](N)CCCNC(=N)N)[C@@H](C)CC)[C@@H](C)CC)C(=O)NCC(=O)N[C@@H](CC(N)=O)C(=O)N[C@@H](CO)C(=O)N[C@@H](Cc1ccc(O)cc1)C(=O)N[C@@H](Cc1ccccc1)C(=O)N[C@@H](CCCCN)C(=O)O` [Antp-K1A] (H-RQIKIWFQNRRMKWKKAAYARIGNSYFK-OH; N-terminus and C-terminus assumed), the “effect compared with the wild-type protein (summary of mutations)” value in the experiment with cancer cells is “effective but with a lower effect than the wild-type protein”. In the experiment with U937, the “Cell Survival Rate (%)” value was 93.55%, the “Anti-cancer activity (% relative to wild-type peptide)” value amounted to 8.41% and the “Decrease … (% relative to wild-type peptide)” value is 24.84%. In the experiment with Caki-1, the “Anti-cancer activity (% relative to wild-type peptide)” value stood at 20.29% and the “Decrease … (% relative to wild-type peptide)” value came to 13.04%.

With `CC[C@H](C)[C@H](NC(=O)[C@H](CCCNC(=N)N)NC(=O)[C@H](C)NC(=O)[C@H](Cc1ccc(O)cc1)NC(=O)CNC(=O)[C@H](CCCCN)NC(=O)[C@H](CCCCN)NC(=O)[C@H](CCCCN)NC(=O)[C@H](Cc1c[nH]c2ccccc12)NC(=O)[C@H](CCCCN)NC(=O)[C@H](CCSC)NC(=O)[C@H](CCCNC(=N)N)NC(=O)[C@H](CCCNC(=N)N)NC(=O)[C@H](CC(N)=O)NC(=O)[C@H](CCC(N)=O)NC(=O)[C@H](Cc1ccccc1)NC(=O)[C@H](Cc1c[nH]c2ccccc12)NC(=O)[C@@H](NC(=O)[C@H](CCCCN)NC(=O)[C@@H](NC(=O)[C@H](CCC(N)=O)NC(=O)[C@@H](N)CCCNC(=N)N)[C@@H](C)CC)[C@@H](C)CC)C(=O)NCC(=O)N[C@@H](CC(N)=O)C(=O)N[C@@H](CO)C(=O)N[C@@H](Cc1ccc(O)cc1)C(=O)N[C@@H](Cc1ccccc1)C(=O)N[C@@H](CCCCN)C(=O)O` [Antp-A2G] (H-RQIKIWFQNRRMKWKKKGYARIGNSYFK-OH; N-terminus and C-terminus assumed), the “effect compared with the wild-type protein (summary of mutations)” value with cancer cells was “effect higher than the wild-type protein”. Also, in the experiment on U937, the “Cell Survival Rate (%)” value was determined as 13.90%, the “killing effect compared with the wild-type peptide” value is “increase in effect”, the “Anti-cancer activity (% relative to wild-type peptide)” value worked out at 112.17% and the “Decrease … (% relative to wild-type peptide)” value is 167.23%. For the same molecule, in the experiment on Caki-1, the “Anti-cancer activity (% relative to wild-type peptide)” value is 100.70% and the “Decrease … (% relative to wild-type peptide)” value came out at 105.96%.

With `CC[C@H](C)[C@H](NC(=O)[C@H](CCCNC(=N)N)NC(=O)[C@H](C)NC(=O)[C@H](Cc1ccc(O)cc1)NC(=O)[C@H](C)NC(=O)[C@H](CCCCN)NC(=O)[C@H](CCCCN)NC(=O)[C@H](CCCCN)NC(=O)[C@H](Cc1c[nH]c2ccccc12)NC(=O)[C@H](CCCCN)NC(=O)[C@H](CCSC)NC(=O)[C@H](CCCNC(=N)N)NC(=O)[C@H](CCCNC(=N)N)NC(=O)[C@H](CC(N)=O)NC(=O)[C@H](CCC(N)=O)NC(=O)[C@H](Cc1ccccc1)NC(=O)[C@H](Cc1ccc(O)cc1)NC(=O)[C@@H](NC(=O)[C@H](CCCCN)NC(=O)[C@@H](NC(=O)[C@H](CCC(N)=O)NC(=O)[C@@H](N)CCCNC(=N)N)[C@@H](C)CC)[C@@H](C)CC)C(=O)NCC(=O)N[C@@H](CC(N)=O)C(=O)N[C@@H](CO)C(=O)N[C@@H](Cc1ccc(O)cc1)C(=O)N[C@@H](Cc1ccccc1)C(=O)N[C@@H](CCCCN)C(=O)O` [Antp W6Y-TPR] (H-RQIKIYFQNRRMKWKKKAYARIGNSYFK-OH; N-terminus and C-terminus assumed), the “effect compared with the wild-type protein (summary of mutations)” value in the experiment with cancer cells was “effective but with an effect lower than the wild-type protein”. Moreover, in the experiment with Caki-1, the “Anti-cancer activity (% relative to wild-type peptide)” value is on record as 32.99% and the “Decrease … (% relative to wild-type peptide)” value is 15.14%.

On to `CC[C@H](C)[C@H](NC(=O)[C@H](CCCNC(=N)N)NC(=O)[C@H](C)NC(=O)[C@H](Cc1ccc(O)cc1)NC(=O)[C@H](C)NC(=O)[C@H](CCCCN)NC(=O)[C@H](CCCCN)NC(=O)[C@H](CCCCN)NC(=O)[C@H](Cc1c[nH]c2ccccc12)NC(=O)[C@H](CCCCN)NC(=O)[C@H](CCSC)NC(=O)[C@H](CCCNC(=N)N)NC(=O)[C@H](CCCNC(=N)N)NC(=O)[C@H](CC(N)=O)NC(=O)[C@H](CC(N)=O)NC(=O)[C@H](Cc1ccccc1)NC(=O)[C@H](Cc1c[nH]c2ccccc12)NC(=O)[C@@H](NC(=O)[C@H](CCCCN)NC(=O)[C@@H](NC(=O)[C@H](CCC(N)=O)NC(=O)[C@@H](N)CCCNC(=N)N)[C@@H](C)CC)[C@@H](C)CC)C(=O)NCC(=O)N[C@@H](CC(N)=O)C(=O)N[C@@H](CO)C(=O)N[C@@H](Cc1ccc(O)cc1)C(=O)N[C@@H](Cc1ccccc1)C(=O)N[C@@H](CCCCN)C(=O)O` [Antp Q8N-TPR] (H-RQIKIWFNNRRMKWKKKAYARIGNSYFK-OH; N-terminus and C-terminus assumed), for which, in the experiment with cancer cells, the “effect compared with the wild-type protein (summary of mutations)” value is recorded as “effect similar to that of the wild-type protein”. Also, in the experiment on Caki-1, the “killing effect compared with the wild-type peptide” value is on record as “stronger than that of the wild-type peptide”, the “Anti-cancer activity (% relative to wild-type peptide)” value is 109.65% and the “Decrease … (% relative to wild-type peptide)” value was 519.29%.

For the molecule `CC[C@H](C)[C@H](NC(=O)[C@H](CCCNC(=N)N)NC(=O)[C@H](C)NC(=O)[C@H](Cc1ccc(O)cc1)NC(=O)[C@H](C)NC(=O)[C@H](CCCCN)NC(=O)[C@H](CCCCN)NC(=O)[C@H](CCCCN)NC(=O)[C@H](Cc1c[nH]c2ccccc12)NC(=O)[C@H](CCCCN)NC(=O)[C@H](CCSC)NC(=O)[C@H](CCCNC(=N)N)NC(=O)[C@H](CCCNC(=N)N)NC(=O)[C@H](CC(N)=O)NC(=O)[C@H](CCC(N)=O)NC(=O)[C@H](Cc1ccccc1)NC(=O)[C@H](Cc1c[nH]c2ccccc12)NC(=O)[C@H](CC(C)C)NC(=O)[C@H](CCCCN)NC(=O)[C@@H](NC(=O)[C@H](CCC(N)=O)NC(=O)[C@@H](N)CCCNC(=N)N)[C@@H](C)CC)C(=O)NCC(=O)N[C@@H](CC(N)=O)C(=O)N[C@@H](CO)C(=O)N[C@@H](Cc1ccc(O)cc1)C(=O)N[C@@H](Cc1ccccc1)C(=O)N[C@@H](CCCCN)C(=O)O` [Antp 15L-TPR] (H-RQIKLWFQNRRMKWKKKAYARIGNSYFK-OH; N-terminus and C-terminus assumed), the “effect compared with the wild-type protein (summary of mutations)” value in the experiment with cancer cells is given as “effective but with an effect lower than the wild-type protein”. In the experiment on Caki-1, the “Anti-cancer activity (% relative to wild-type peptide)” value turned out to be 73.75% and the “Decrease … (% relative to wild-type peptide)” value is recorded as 31.29%.
